Test results from paper PMC11732138, “Gold complex compounds that inhibit drug-resistant Staphylococcus aureus by targeting thioredoxin reductase” (Frontiers in Antibiotics, 2023).
Values after ≈ are worked out from the molar mass of the structure shown. Like-named read-outs stand apart in the source and are kept apart here.

Columns and labels:
[1] = Compound solubility in PBS; assay type: physicochemical; settings: aqueous buffer, kinetic from dmso stock; PBS, 2 Hour; highest concentration with no detectable precipitate; read-out: Solubility Limit
Experimental: Compound solubility in PBS. Compound solubility was measured in PBS. Briefly, serial dilutions of test compounds were prepared in DMSO at 100x the final concentration. Test compound solutions were diluted 100-fold into PBS in a 96-well plate and mixed. After 2 h, the presence of precipitate was detected by measuring absorbance at 540 nm.

[2] = test system: S. aureus MW2; assay: Broth microdilution MIC, S. aureus MW2; assay type: cell-based, Staphylococcus aureus; settings: for MIC: S. aureus MW2 (MRSA), broth microdilution, 18 h
Experimental: (§1) In vitro antibiotic susceptibilities were determined using the broth microdilution assay established by the Clinical and Laboratory Standards Institute ([Clinical and Laboratory Standards Institute, 2012]). Broth microdilution assays were carried out with 2 biological replicates, each in triplicate, Mueller–Hinton broth (MHB; BD Biosciences, Franklin Lakes, NJ, USA) with a total assay volume of 100 μL in 96-well plates (BD Biosciences, Franklin Lakes, NJ, USA). Two-fold serial dilutions of compounds were prepared at a range of 0.01– 64 μg/mL in 50 μL of MHB. The initial bacterial inoculum was adjusted to OD600 0.06, 50 μL was, added to the test compounds, and then incubated at 35°C for 18 h. Post incubation, OD600 was measured using a Vmax microplate reader (Molecular Devices, San Jose, CA), and the lowest concentration of test compound that suppressed bacterial growth was reported as the MIC. Broth culture from the MIC assay (10 μL) was plated on Mueller–Hinton agar (BD Biosciences, Franklin Lakes, NJ, USA), and colony-forming units (CFUs) were enumerated after overnight incubation at 37°C.

[3] = biological target: S. aureus TrxR (Staphylococcus aureus, UniProt P66011); assay: TrxR (TrxB) enzymatic assay, DTNB to TNB conversion; settings: for TrxR enzymatic inhibitory activity (in words): DTNB to TNB conversion
Chain of S. aureus TrxR (P66011 whole entry): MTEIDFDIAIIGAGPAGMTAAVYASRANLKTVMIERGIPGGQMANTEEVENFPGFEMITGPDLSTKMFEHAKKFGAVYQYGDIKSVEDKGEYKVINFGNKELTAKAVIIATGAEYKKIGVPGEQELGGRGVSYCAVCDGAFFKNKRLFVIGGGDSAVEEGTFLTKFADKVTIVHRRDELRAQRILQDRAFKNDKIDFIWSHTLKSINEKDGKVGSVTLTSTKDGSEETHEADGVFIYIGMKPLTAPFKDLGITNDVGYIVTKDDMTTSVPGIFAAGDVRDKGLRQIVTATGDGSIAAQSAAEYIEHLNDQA
Experimental: TrxR specific inhibitory activity was evaluated using 40 μL of S. aureus TrxR enzyme (0.5 μg/μL) per 200 mL of the reaction mixture for 15 minutes, comparing auranofin to other sulfur-containing compounds (all tested at 10 μg/mL), including known anti-S. aureus compounds.
For the screening assay, diluted TrxR assay buffer (Cayman Chemical, Ann Arbor, MI) (100 μL) was mixed with the investigational compounds (20 μL) in a 96 well-plate format and combined with Sa-TrxB (40 μL; 0.5 μg/mL), DTNB (20 μL) and NADPH (20 μL). The reaction entailed combining NADPH and Sa-TrxB with DTNB, which was converted to TNB, producing a yellow color.

[4] = test system: E. faecium ATCC E007; assay: Broth microdilution MIC, E. faecium; assay type: cell-based, Enterococcus faecium; settings: Enterococcus faecium, ATCCE007; E. faecium ATCC E007; read-out: MIC
Experimental: as §1

[5] = test system: A. baumannii 17978; assay: Broth microdilution MIC, A. baumannii; assay type: cell-based, Acinetobacter baumannii; settings: Acinetobacter baumannii; A. baumannii 17978; read-out: MIC
Experimental: as §1

[6] = test system: P. aeruginosa PA14; assay: Broth microdilution MIC, P. aeruginosa; assay type: cell-based, Pseudomonas aeruginosa; settings: Pseudomonas aeruginosa; P. aeruginosa PA14; read-out: MIC
Experimental: as §1

[7] = test system: K. pneumoniae ATCC 77326; assay: Broth microdilution MIC, K. pneumoniae; assay type: cell-based, Klebsiella pneumonia; settings: Klebsiella pneumoniae, ATCC77326; K. pneumoniae ATCC 77326; read-out: MIC
Experimental: as §1

[8] = test system: Enterobacter (EAE 2625); assay: Broth microdilution MIC, Enterobacter; assay type: cell-based, Enterobacter spp.; settings: Enterobacter (EAE 2625); read-out: MIC
Experimental: as §1

[9] = test system: clinical isolates of S. aureus; assay: MIC against clinical isolates of S. aureus; assay type: cell-based; settings: Staphylococcus aureus, read-out: MIC
Experimental: Broth microdilution assays were carried out with 2 biological replicates, each in triplicate, Mueller–Hinton broth (MHB; BD Biosciences, Franklin Lakes, NJ, USA) with a total assay volume of 100 μL in 96-well plates (BD Biosciences, Franklin Lakes, NJ, USA). […] The initial bacterial inoculum was adjusted to OD600 0.06, 50 μL was, added to the test compounds, and then incubated at 35°C for 18 h. Post incubation, OD600 was measured using a Vmax microplate reader (Molecular Devices, San Jose, CA), and the lowest concentration of test compound that suppressed bacterial growth was reported as the MIC.
Isolates were tested as 2 biological replicates.

[10] = test system: intracellular free thiols of S. aureus MW2; assay: Thiol depletion assay; assay type: cell-based, Staphylococcus aureus; settings: treated vs untreated cell lysate
Experimental: S. aureus MW2 was treated for 15 min with the indicated (0.125, 0.25, 0.5, or 0.75 µg/mL) concentrations of auranofin, AU1, AU5, or ampicillin. After treatment bacteria were washed twice in PBS and then resuspended in 100 mM potassium phosphate, monobasic, pH 7.4, containing 1 mM ethylenediaminetetraacetic acid to promote lysis. Cells were incubated in the lysis solution for 30 min at 60°C and then vortexed briefly. The solution was centrifuged at 13,000 g for 10 min to collect cell debris. Lysate was collected and 50 μL was transferred to a 96-well plate. Thiols were quantified using the Fluorometric Thiol assay kit following the manufacturer’s instructions (Millipore Sigma, St. Louis, MO, USA). The fluorescence intensity was measured after a 30 min incubation time at λex = 490/λem = 535 nm using a Vmax plate reader.

[11] = test system: S. aureus MW2; assay: Diamide assay (CFU reduction); assay type: cell-based, Staphylococcus aureus; settings: 3 h
Experimental: An overnight culture of S. aureus MW2 was inoculated in tryptic soy broth (TSB) media and grown with agitation. The cells were centrifuged, washed with PBS, and diluted to an OD600 0.4 (10^8 CFU/mL) in PBS. The cells were then treated with auranofin (0.5 µg/mL), AU1 (0.5 µg/mL), AU5 (0.5 µg/mL), and diamide (5 mM and 10 mM) alone or in combinations for 3 h at 37°C. The cells were then serially diluted and plated on tryptic soy agar (TSA) media and incubated at 37°C for 24 h. Colonies that grew on plates were enumerated to determine the effect of the drug and diamide on S. aureus.

COC(=O)[C@H]1[C@H]2C[C@@H]3c4[nH]c5cc(OC)ccc5c4CCN3C[C@H]2C[C@@H](OC(=O)c2cc(OC)c(OC)c(OC)c2)[C@@H]1OC [Reserpine]
solubility at 2 h [1]: 7.81 µM (≈ 4.75 µg/mL)

CC(C)(C)c1ccc(S(=O)O)cc1 [C2, 4-tert-butylbenzenesulfinic acid]
MIC [2]: > 128 µg/mL

O=P(c1ccccc1)(c1ccccc1)c1ccccc1 [C4, Triphenylphosphine oxide]
MIC [2]: > 128 µg/mL

COC(=O)/C=C/S(=O)(=O)c1ccc(C(C)(C)C)cc1 [D25]
anti-S. aureus activity (in words) [2]: not effective S. aureus inhibitors | TrxR enzymatic inhibitory activity (in words) [3]: did not inhibit

CC(C)(C)c1ccc(S(=O)(=O)/C=C/C#N)cc1 [Bay11-7085]
MIC ([2]; Staphylococcus aureus, read-out: MIC): 4 µg/mL (≈ 16 µM) | MIC [4]: 32 µg/mL (≈ 128 µM) | MIC [5]: 64 µg/mL (≈ 257 µM) | MIC [6]: > 64 µg/mL | MIC [7]: > 64 µg/mL | MIC [8]: > 64 µg/mL | OD420 in TrxR enzymatic assay ([3]; subscreen, after a 30 min incubation period, DMSO 0.483 ± 0.121): 0.1094

CCP(=O)(CC)CC [C3, triethylphosphine oxide]
MIC [2]: > 128 µg/mL

Cc1onc(-c2ccccc2)c1C(=O)N[C@@H]1C(=O)N2[C@@H]1SC(C)(C)[C@@H]2C(=O)O [Oxacillin]
MIC ([9]; isolate BFSA12): 0.5 µg/mL (≈ 1.25 µM) | MIC ([9]; isolate BFSA13): 1 µg/mL (≈ 2.49 µM) | MIC ([9]; isolate BFSA15): 0.25 µg/mL (≈ 0.623 µM) | MIC ([9]; isolate BFSA16): 0.25 µg/mL (≈ 0.623 µM) | MIC ([9]; isolate BFSA17): 0.125 µg/mL (≈ 0.311 µM) | MIC ([9]; isolate BFSA18): 0.5 µg/mL (≈ 1.25 µM) | MIC ([9]; isolate BFSA19): 0.5 µg/mL (≈ 1.25 µM) | MIC ([9]; isolate BFSA20): 0.5 µg/mL (≈ 1.25 µM) | MIC ([9]; isolate BFSA21): 0.5 µg/mL (≈ 1.25 µM) | MIC ([9]; isolate BFSA22): 1 µg/mL (≈ 2.49 µM) | MIC ([9]; isolate BFSA24): 0.5 µg/mL (≈ 1.25 µM) | MIC ([9]; isolate BFSA26): 0.25 µg/mL (≈ 0.623 µM) | MIC ([9]; isolate BFSA29): > 8 µg/mL | MIC ([9]; isolate BFSA30): > 8 µg/mL | MIC ([9]; isolate BFSA31): > 8 µg/mL | MIC ([9]; isolate BFSA32): > 8 µg/mL | MIC ([9]; isolate BFSA33): > 8 µg/mL | MIC ([9]; isolate BFSA34): > 8 µg/mL | MIC ([9]; isolate BFSA35): > 8 µg/mL | MIC ([9]; isolate BFSA36): > 8 µg/mL | MIC ([9]; isolate BFSA37): 0.25 µg/mL (≈ 0.623 µM) | MIC ([9]; isolate BFSA38): 0.25 µg/mL (≈ 0.623 µM) | MIC ([9]; isolate BFSA39): 0.25 µg/mL (≈ 0.623 µM) | MIC ([9]; isolate BFSA148): > 8 µg/mL | MIC ([9]; isolate BFSA149): > 8 µg/mL | MIC ([9]; isolate BFSA150): > 8 µg/mL | MIC ([9]; isolate BFSA151): > 8 µg/mL | MIC ([9]; isolate BFSA152): > 8 µg/mL | MIC ([9]; isolate BFSA153): > 8 µg/mL | MIC ([9]; isolate BFSA155): > 8 µg/mL

CC(C)(C)c1ccc(S(=O)(=O)/C=C/C(N)=O)cc1 [D22]
anti-S. aureus activity (in words) [2]: not effective S. aureus inhibitors | TrxR enzymatic inhibitory activity (in words) [3]: demonstrated inhibitory activity but required higher concentrations than AU1, AU5, or auranofin

CC1(C)S[C@@H]2[C@H](NC(=O)[C@H](N)c3ccccc3)C(=O)N2[C@H]1C(=O)O [ampicillin]
impact on free thiols (in words) [10]: no impact

CN(C)C(=O)/N=N/C(=O)N(C)C [diamide]
log CFU reduction ([11]; diamide alone 5 mM): 1.5 log CFU | log CFU reduction ([11]; diamide alone 10 mM): up to 2.6 log CFU

CC(C)(C)c1ccc(S)cc1 [C1, 4-tert-butylbenzenethiol]
MIC [2]: > 128 µg/mL

CC(C)(C)c1ccc(S(=O)(=O)/C=C/CO)cc1 [D26]
anti-S. aureus activity (in words) [2]: not effective S. aureus inhibitors | TrxR enzymatic inhibitory activity (in words) [3]: demonstrated inhibitory activity but required higher concentrations than AU1, AU5, or auranofin
